{
  "source": "paper PMC9653409",
  "about": "“Generative deep learning enables the discovery of a potent and selective RIPK1 inhibitor” (Nature Communications, 2022)",
  "assay_in_all_cases": "Kinase inhibitory activity profiling of RI-962@10 µM (406 kinases, Eurofins)",
  "format_in_all_cases": "biochemical",
  "key": {"[1]": {"molecular_target": "panel of human kinases (kinase named in endpoint) (Homo sapiens, UniProt P00519)", "details": "10 µM; read-out: Activity (%), Abl(h)", "outline": "(§1)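 Radiometric filter-binding kinase assays: enzyme preincubated 15 min with compound in 8 mM MOPS pH 7.0, 0.2 mM EDTA, 250 μM peptide substrate, 10 mM magnesium acetate, 10 μM [γ-33P]-ATP. Reaction started with Mg/ATP, run 40 min at room temperature, stopped with phosphoric acid; 33P incorporation read by scintillation counting. Other kinases by similar protocols.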"}, "[2]": {"molecular_target": "panel of human kinases (kinase named in endpoint) (Homo sapiens, UniProt P08581, Y1230H)", "details": "10 µM; read-out: Activity (%), Met(Y1248H)(h)", "outline": "as §1"}, "[3]": {"molecular_target": "panel of human kinases (kinase named in endpoint) (Homo sapiens, UniProt P08581)", "details": "10 µM; read-out: Activity (%), Met(h)", "outline": "as §1"}, "[4]": {"molecular_target": "panel of human kinases (kinase named in endpoint) (Homo sapiens, UniProt Q13554)", "details": "10 µM; read-out: Activity (%), CaMKIIβ(h)", "outline": "as §1"}, "[5]": {"molecular_target": "panel of human kinases (kinase named in endpoint) (Homo sapiens, UniProt Q9Y2H1)", "details": "10 µM; read-out: Activity (%), NDR2(h)", "outline": "as §1"}, "[6]": {"molecular_target": "panel of human kinases (kinase named in endpoint) (Homo sapiens, UniProt P00519, T315I)", "details": "10 µM; read-out: Activity (%), Abl(T315I)(h)", "outline": "as §1"}, "[7]": {"molecular_target": "panel of human kinases (kinase named in endpoint) (Homo sapiens, UniProt P12931)", "sequence (P12931 whole entry)": "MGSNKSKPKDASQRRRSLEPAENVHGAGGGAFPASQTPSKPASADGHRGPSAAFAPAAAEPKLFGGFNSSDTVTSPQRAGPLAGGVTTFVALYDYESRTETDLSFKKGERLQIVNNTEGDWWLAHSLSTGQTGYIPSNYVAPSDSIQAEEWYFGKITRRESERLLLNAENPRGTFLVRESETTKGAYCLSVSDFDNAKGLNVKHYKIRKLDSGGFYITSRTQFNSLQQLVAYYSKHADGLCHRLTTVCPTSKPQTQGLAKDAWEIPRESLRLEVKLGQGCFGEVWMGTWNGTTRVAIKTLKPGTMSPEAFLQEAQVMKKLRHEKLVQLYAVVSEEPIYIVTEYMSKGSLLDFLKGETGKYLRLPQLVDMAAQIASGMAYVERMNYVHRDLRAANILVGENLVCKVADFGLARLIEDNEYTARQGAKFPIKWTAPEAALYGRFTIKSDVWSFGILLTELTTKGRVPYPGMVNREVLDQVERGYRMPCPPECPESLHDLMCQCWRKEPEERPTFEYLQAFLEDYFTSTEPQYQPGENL", "details": "10 µM", "outline": "as §1"}, "[8]": {"molecular_target": "panel of human kinases (kinase named in endpoint) (Homo sapiens, UniProt Q9Y6M4)", "details": "10 µM; read-out: Activity (%), CK1γ3(h)", "outline": "as §1"}, "[9]": {"molecular_target": "panel of human kinases (kinase named in endpoint) (Homo sapiens, UniProt Q96GD4)", "details": "10 µM; read-out: Activity (%), Aurora-B(h)", "outline": "as §1"}, "[10]": {"molecular_target": "panel of human kinases (kinase named in endpoint) (Homo sapiens, UniProt P36888)", "sequence (P36888 27-993)": "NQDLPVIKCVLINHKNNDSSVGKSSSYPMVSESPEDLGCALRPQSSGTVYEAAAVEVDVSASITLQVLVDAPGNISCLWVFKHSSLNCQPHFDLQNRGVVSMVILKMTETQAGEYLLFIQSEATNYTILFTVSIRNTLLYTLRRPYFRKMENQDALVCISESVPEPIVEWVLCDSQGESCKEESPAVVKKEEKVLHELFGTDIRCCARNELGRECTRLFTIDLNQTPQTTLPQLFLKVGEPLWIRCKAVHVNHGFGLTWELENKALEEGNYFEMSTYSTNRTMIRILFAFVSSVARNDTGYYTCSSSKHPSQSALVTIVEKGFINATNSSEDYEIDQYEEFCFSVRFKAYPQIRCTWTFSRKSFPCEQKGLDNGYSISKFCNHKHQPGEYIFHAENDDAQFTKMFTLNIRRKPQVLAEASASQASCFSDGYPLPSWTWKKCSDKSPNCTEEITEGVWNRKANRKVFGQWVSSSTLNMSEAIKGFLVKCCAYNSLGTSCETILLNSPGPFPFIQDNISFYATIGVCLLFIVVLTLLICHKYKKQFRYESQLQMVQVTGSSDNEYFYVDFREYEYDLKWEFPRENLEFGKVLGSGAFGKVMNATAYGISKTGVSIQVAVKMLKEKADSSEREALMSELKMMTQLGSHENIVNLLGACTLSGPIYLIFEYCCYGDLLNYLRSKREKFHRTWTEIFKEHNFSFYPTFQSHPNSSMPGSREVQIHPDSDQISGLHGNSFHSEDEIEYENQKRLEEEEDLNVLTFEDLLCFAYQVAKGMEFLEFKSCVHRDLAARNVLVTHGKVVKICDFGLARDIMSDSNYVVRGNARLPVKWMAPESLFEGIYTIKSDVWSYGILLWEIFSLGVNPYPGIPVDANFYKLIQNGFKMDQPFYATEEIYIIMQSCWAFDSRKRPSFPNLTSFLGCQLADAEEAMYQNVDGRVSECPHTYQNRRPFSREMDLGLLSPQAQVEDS", "details": "10 µM; read-out: Activity (%), Flt3(h)", "outline": "as §1"}, "[11]": {"molecular_target": "panel of human kinases (kinase named in endpoint) (Homo sapiens, UniProt Q9P289)", "sequence (Q9P289 whole entry)": "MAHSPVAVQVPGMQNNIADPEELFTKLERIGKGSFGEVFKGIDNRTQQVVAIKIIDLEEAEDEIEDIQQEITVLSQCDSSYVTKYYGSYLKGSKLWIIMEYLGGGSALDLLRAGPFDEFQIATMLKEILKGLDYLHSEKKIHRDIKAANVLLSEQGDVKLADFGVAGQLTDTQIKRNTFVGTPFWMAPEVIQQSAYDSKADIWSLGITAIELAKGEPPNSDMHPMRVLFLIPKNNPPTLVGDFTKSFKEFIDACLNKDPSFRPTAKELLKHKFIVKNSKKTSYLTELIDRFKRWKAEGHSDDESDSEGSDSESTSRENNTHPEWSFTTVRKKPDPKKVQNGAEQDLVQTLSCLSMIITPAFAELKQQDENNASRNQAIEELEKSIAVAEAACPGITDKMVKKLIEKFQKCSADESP", "details": "10 µM; read-out: Activity (%), MST4(h)", "outline": "as §1"}, "[12]": {"molecular_target": "panel of human kinases (kinase named in endpoint) (Homo sapiens, UniProt P19525)", "details": "10 µM; read-out: Activity (%), PKR(h)", "outline": "as §1"}, "[13]": {"molecular_target": "panel of human kinases (kinase named in endpoint) (Homo sapiens, UniProt P42680)", "details": "10 µM; read-out: Activity (%), Tec(h) activated", "outline": "as §1"}, "[14]": {"molecular_target": "panel of human kinases (kinase named in endpoint) (Homo sapiens, UniProt P41743)", "details": "10 µM; read-out: Activity (%), PKCι(h)", "outline": "as §1"}, "[15]": {"molecular_target": "panel of human kinases (kinase named in endpoint) (Homo sapiens, UniProt P17948)", "details": "10 µM; read-out: Activity (%), Flt1(h)", "outline": "as §1"}, "[16]": {"molecular_target": "panel of human kinases (kinase named in endpoint) (Homo sapiens, UniProt Q06187, R28H)", "details": "10 µM; read-out: Activity (%), BTK(R28H)(h)", "outline": "as §1"}, "[17]": {"molecular_target": "panel of human kinases (kinase named in endpoint) (Homo sapiens, UniProt Q9Y2U5)", "details": "10 µM; read-out: Activity (%), MEKK2(h)", "outline": "as §1"}, "[18]": {"molecular_target": "panel of human kinases (kinase named in endpoint) (Homo sapiens, UniProt Q12866)", "details": "10 µM; read-out: Activity (%), Mer(h)", "outline": "as §1"}, "[19]": {"molecular_target": "panel of human kinases (kinase named in endpoint) (Homo sapiens, UniProt P46734)", "details": "10 µM; read-out: Activity (%), MKK3(h)", "outline": "as §1"}, "[20]": {"molecular_target": "panel of human kinases (kinase named in endpoint) (Homo sapiens, UniProt P36507)", "details": "10 µM; read-out: Activity (%), MEK2(h)", "outline": "as §1"}, "[21]": {"molecular_target": "panel of human kinases (kinase named in endpoint) (Homo sapiens, UniProt Q8WTQ7)", "details": "10 µM; read-out: Activity (%), GRK7(h)", "outline": "as §1"}, "[22]": {"molecular_target": "panel of human kinases (kinase named in endpoint) (Homo sapiens, UniProt Q16816)", "details": "10 µM; read-out: Activity (%), PhKγ1(h)", "outline": "as §1"}, "[23]": {"molecular_target": "panel of human kinases (kinase named in endpoint) (Homo sapiens, UniProt Q05513)", "sequence (Q05513 whole entry)": "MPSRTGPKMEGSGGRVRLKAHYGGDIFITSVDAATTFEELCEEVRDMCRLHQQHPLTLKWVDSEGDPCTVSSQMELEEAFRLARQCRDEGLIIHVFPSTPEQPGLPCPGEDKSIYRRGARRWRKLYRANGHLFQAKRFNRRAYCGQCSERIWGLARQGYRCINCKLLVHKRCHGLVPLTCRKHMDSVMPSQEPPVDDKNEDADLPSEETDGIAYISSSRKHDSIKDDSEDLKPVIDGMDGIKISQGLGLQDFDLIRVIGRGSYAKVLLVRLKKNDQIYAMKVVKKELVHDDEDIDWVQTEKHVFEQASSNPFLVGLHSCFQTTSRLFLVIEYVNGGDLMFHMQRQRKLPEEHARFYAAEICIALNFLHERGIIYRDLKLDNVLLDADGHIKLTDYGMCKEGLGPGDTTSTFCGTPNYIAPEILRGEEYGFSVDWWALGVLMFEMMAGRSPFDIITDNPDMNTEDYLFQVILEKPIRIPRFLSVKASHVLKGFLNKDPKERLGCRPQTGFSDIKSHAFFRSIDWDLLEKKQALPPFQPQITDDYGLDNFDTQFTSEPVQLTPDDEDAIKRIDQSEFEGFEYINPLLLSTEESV", "details": "10 µM; read-out: Activity (%), PKCζ(h)", "outline": "as §1"}, "[24]": {"molecular_target": "panel of human kinases (kinase named in endpoint) (Homo sapiens, UniProt O00443)", "sequence (O00443 whole entry)": "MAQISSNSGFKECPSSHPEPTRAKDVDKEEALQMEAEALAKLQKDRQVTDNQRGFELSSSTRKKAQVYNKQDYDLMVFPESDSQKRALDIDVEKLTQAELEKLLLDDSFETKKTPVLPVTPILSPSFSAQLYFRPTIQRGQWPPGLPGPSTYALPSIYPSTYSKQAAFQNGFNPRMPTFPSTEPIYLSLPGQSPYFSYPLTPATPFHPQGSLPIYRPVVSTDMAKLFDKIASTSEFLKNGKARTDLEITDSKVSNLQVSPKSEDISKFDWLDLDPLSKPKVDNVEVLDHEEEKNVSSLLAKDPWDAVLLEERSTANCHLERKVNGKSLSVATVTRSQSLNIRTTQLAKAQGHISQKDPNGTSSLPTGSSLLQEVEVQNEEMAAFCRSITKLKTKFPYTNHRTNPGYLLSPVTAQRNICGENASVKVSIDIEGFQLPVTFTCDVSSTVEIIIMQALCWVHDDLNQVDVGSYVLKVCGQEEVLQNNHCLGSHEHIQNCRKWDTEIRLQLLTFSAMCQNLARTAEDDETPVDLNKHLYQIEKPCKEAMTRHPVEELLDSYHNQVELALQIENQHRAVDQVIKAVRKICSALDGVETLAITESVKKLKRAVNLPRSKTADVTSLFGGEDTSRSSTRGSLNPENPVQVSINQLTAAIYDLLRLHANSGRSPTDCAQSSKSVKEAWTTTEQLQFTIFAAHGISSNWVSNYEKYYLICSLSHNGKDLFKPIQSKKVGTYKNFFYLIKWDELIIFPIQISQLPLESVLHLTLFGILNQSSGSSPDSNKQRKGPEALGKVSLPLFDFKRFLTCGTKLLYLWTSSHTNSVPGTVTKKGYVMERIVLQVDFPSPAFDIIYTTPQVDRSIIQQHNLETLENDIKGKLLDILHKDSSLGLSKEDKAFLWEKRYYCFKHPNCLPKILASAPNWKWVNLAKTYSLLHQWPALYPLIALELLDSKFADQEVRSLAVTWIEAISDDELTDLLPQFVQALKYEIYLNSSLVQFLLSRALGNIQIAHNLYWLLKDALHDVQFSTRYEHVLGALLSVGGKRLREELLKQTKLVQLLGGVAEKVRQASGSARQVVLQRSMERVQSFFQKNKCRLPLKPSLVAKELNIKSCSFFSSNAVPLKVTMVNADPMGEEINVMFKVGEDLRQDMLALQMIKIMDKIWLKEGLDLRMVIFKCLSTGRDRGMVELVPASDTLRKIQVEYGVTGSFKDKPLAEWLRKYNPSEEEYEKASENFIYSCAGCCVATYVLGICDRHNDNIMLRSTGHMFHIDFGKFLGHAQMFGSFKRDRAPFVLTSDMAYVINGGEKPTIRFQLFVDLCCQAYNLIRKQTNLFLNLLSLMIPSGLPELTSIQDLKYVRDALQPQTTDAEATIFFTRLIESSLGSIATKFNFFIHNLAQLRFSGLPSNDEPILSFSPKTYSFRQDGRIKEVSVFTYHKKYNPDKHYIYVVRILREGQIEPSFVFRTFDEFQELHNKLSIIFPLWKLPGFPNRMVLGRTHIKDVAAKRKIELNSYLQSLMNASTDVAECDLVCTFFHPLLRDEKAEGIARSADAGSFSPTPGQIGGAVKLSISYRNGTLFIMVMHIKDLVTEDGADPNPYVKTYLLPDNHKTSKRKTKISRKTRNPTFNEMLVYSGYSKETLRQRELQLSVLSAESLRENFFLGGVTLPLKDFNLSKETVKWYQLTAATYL", "details": "10 µM; read-out: Activity (%), PI3KC2a(h)", "outline": "as §1"}, "[25]": {"molecular_target": "panel of human kinases (kinase named in endpoint) (Homo sapiens, UniProt Q9Y4K4)", "sequence (Q9Y4K4 whole entry)": "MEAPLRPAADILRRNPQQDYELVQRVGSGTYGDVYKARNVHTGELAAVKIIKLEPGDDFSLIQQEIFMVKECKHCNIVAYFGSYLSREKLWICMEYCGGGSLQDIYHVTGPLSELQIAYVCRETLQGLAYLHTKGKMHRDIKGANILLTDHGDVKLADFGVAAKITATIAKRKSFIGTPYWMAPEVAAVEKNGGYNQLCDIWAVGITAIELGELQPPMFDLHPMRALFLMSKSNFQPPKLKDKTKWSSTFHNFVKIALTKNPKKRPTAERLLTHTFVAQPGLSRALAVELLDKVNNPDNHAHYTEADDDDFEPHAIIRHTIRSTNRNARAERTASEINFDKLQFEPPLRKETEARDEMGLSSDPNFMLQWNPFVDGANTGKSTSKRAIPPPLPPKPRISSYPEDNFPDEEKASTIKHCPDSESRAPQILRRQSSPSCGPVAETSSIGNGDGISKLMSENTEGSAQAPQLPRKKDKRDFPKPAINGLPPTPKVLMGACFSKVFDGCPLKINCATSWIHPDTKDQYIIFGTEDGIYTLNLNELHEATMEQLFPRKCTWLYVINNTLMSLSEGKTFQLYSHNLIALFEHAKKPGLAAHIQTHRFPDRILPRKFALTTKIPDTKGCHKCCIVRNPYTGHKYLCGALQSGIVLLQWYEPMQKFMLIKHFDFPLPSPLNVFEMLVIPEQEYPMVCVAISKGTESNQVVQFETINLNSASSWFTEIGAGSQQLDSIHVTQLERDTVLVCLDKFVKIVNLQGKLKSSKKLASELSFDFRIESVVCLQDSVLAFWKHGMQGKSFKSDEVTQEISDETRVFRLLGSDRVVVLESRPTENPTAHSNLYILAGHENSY", "details": "10 µM; read-out: Activity (%), MAP4K5(h)", "outline": "as §1"}},
  "note": "Where two headings read alike, the source gives them in different places.",
  "data": [
    {"smiles": "CC(C)C(=O)Nc1nc2cc(-c3ccc4c(c3)c(C(=O)NC(C)c3ccccc3)cn4C)ccn2n1", "note": "(centres unmarked) [RI-962]", "values": [
      {"measurement": "activity at 10 µM", "setting": "[1]", "result": 85, "unit": "%"},
      {"measurement": "activity at 10 µM", "setting": "[2]", "result": 99, "unit": "%"},
      {"measurement": "activity at 10 µM", "setting": "[3]", "result": 102, "unit": "%"},
      {"measurement": "activity at 10 µM", "setting": "[4]", "result": 109, "unit": "%"},
      {"measurement": "activity at 10 µM", "setting": "[5]", "result": 85, "unit": "%"},
      {"measurement": "activity at 10 µM", "setting": "[6]", "result": 132, "unit": "%"},
      {"measurement": "activity at 10 µM", "setting": "[7]; read-out: Activity (%), Src(1-530)(h)", "result": 95, "unit": "%"},
      {"measurement": "activity at 10 µM", "setting": "[7]; read-out: Activity (%), cSRC(h)", "result": 100, "unit": "%"},
      {"measurement": "activity at 10 µM", "setting": "[8]", "result": 96, "unit": "%"},
      {"measurement": "activity at 10 µM", "setting": "[9]", "result": 119, "unit": "%"},
      {"measurement": "activity at 10 µM", "setting": "[10]", "result": 87, "unit": "%"},
      {"measurement": "activity at 10 µM", "setting": "[11]", "result": 119, "unit": "%"},
      {"measurement": "activity at 10 µM", "setting": "[12]", "result": 97, "unit": "%"},
      {"measurement": "activity at 10 µM", "setting": "[13]", "result": 103, "unit": "%"},
      {"measurement": "activity at 10 µM", "setting": "[14]", "result": 97, "unit": "%"},
      {"measurement": "activity at 10 µM", "setting": "[15]", "result": 85, "unit": "%"},
      {"measurement": "activity at 10 µM", "setting": "[16]", "result": 105, "unit": "%"},
      {"measurement": "activity at 10 µM", "setting": "[17]", "result": 98, "unit": "%"},
      {"measurement": "activity at 10 µM", "setting": "[18]", "result": 91, "unit": "%"},
      {"measurement": "activity at 10 µM", "setting": "[19]", "result": 103, "unit": "%"},
      {"measurement": "activity at 10 µM", "setting": "[20]", "result": 86, "unit": "%"},
      {"measurement": "activity at 10 µM", "setting": "[21]", "result": 60, "unit": "%"},
      {"measurement": "activity at 10 µM", "setting": "[22]", "result": 98, "unit": "%"},
      {"measurement": "activity at 10 µM", "setting": "[23]", "result": 119, "unit": "%"},
      {"measurement": "activity at 10 µM", "setting": "[24]", "result": 102, "unit": "%"},
      {"measurement": "activity at 10 µM", "setting": "[25]", "result": 100, "unit": "%"}
    ]}
  ]
}
